“Also recorded” adds a separate entry of the source.
Legend:
[1] = system: skin-derived precursors (SKPs); test: Western blot analysis of NFH protein; type: cell-based, rat (neonate Wistar); conditions: three days after treatment, Figure 3B, peptides at 1 to 5 μM, less than VHL(157–171): VHL(157–168) p < 0.01, TAT p < 0.001
Method: (§1) Rodent skin-derived precursor cells (SKPs), which can differentiate to neurons, were used. SKPs were previously isolated from the back dermis of neonate Wistar rats by the authors. These cells were cultured in growth medium composed of DMEM/F12 (1:1; Gibco, Grand Island, NY, USA) containing 2% B27 supplement (Gibco), 20 ng/mL epidermal growth factor (EGF; Upstate Biotechnology, Lake Placid, NY, USA), and 40 ng/mL bFGF (PeproTech EC Ltd., Rocky Hill, NJ, USA) in a humidified incubator at 37 °C with 5% CO2. The floating clusters of cultured cells were centrifuged and dissociated into a single-cell suspension by use of a Pasteur pipette with a flame-polished tip. These single cells were then re-suspended into at a concentration of 50,000 cells/mL for passage or experiments.
(§2) For neuronal differentiation, cells were dissociated into a single-cell suspension by use of a Pasteur pipette and re-suspended into a concentration of 50,000 cells/mL in DMEM/F12 without serum, neurotrophic factors or growth factors. Then, the cells were cultured on poly-L-lysine-coated dishes or cover glasses, and the synthesized peptides at concentrations from 1 to 5 μM were added to the culture medium and delivered into the cells. Three days or more later, the cells were used for morphological, immunocytochemical, immunohistochemical, electrophysiological and immunoprecipitation studies, as well as for Western blot analysis.
Cultured cells were washed 3 times in cold PBS and then scraped into ice-cold PBS. After incubation on ice for 10 min, the cells were lysed with lysis buffer and centrifuged, after which the supernatants were collected. Each sample was separated by SDS-PAGE under reducing conditions and transferred electrophoretically to nitrocellulose filters. Non-specific binding of antibody was blocked by incubation with 5% donkey serum for 1 h. Western blots were probed with anti-MAP2 antibody, anti-NFH antibody, anti-ChAT antibody, anti-GAD antibody, anti-rhodopsin antibody, anti-TH antibody, and anti-elongin C antibody (Santa Cruz, San Diego, CA, USA) followed by horseradish peroxidase-conjugated secondary antibodies. Protein bands were detected by using a chemical luminescence detection system (ECL Plus Western Blotting Reagent Pack, Amersham, Hemel Hempstead, UK). Images were analyzed with LAS-1000 (Fujifilm, Tokyo, Japan), and the density of the bands was determined by using Image Gauge software (Fujifilm).

[2] = system: skin-derived precursors (SKPs); test: Whole-cell patch-clamp electrophysiology; type: cell-based, rat (neonate Wistar); conditions: five days after peptide addition at 3 μM, holding potential −80 mV, steps of 20 mV from −100 to 100 mV, VHL(157–168) vs VHL(157–171) p < 0.01
Method: as §1, §2
To record fast sodium and delayed rectifier potassium currents, we prepared extracellular and intracellular solutions as described previously. […] For recordings and data analysis we used CEZ-2300 (Nihon Kohden, Tokyo, Japan) and pCLAMP 6.0 software (Axon Instruments, Burlingame, CA, USA). Linear components of leak and capacitive currents were reduced by analogue circuitry and then canceled by the P/N method. Signals were sampled every 20 μs, and currents were filtered at 5 kHz. Data were additionally processed with Origin 5.0 (Microcal, Northhampton, MA, USA).

JAK2 = test: Ubiquitination assay (IP anti-JAK2, IB anti-ubiquitin); type: biochemical, rat; conditions: incubation 4 h with ubiquitin, E1, E2 and peptide; vs no peptide or TAT, p < 0.001; Figure 5A
Method: We asked whether VHL(157–171) peptide-mediated neuronal differentiation was related to ubiquitination or not. […] After incubation for 4 h, cultured cells (1 × 10^6) were washed with ice-cold PBS and lysed in RIPA lysis buffer (Upstate, Charlottesville, VA, USA). The total protein was extracted from the cells, and the lysates were immunoprecipitated with anti-JAK2 antibody (Santa Cruz, San Diego, CA, USA) by using Protein A/G Sepharose (abcam, Cambridge, MA, USA). The immunoprecipitates were supplemented with 1 mM PMSF and the protease inhibitor cocktail. After 2 h, each sample was separated by SDS-PAGE and transferred electrophoretically to nitrocellulose filters. Western blots were probed with anti-ubiquitin antibody (Sigma-Aldrich) followed by horseradish peroxidase-conjugated secondary antibodies (Amersham). Protein bands were detected by using a chemical luminescence detection system (Amersham). Images were analyzed with LAS-1000 (Fujifilm).

[3] = system: skin-derived precursors (SKPs); test: Immunocytochemistry of neuronal markers in NDD peptide-treated cells; type: cell-based, rat (neonate Wistar); conditions: Figure 6B
Method: as §1, §2
Cultured cells were fixed with 4% paraformaldehyde in PBS (Phosphate buffered saline) for 10 min at room temperature. Cells were incubated for 1 h at room temperature with primary antibodies. Antibodies against anti-MAP2 antibody (Sigma-Aldrich, St. Louis, MO, USA), anti-Neurofilment-H (NFH) antibody (Sigma-Aldrich), anti-NeuN antibody (Merk Millipore, Billerica, MA, USA), anti-GFAP antibody (DAKO, Santa Clara, CA, USA), anti-tyrosine hydroxylase (TH) antibody (Merk Millipore, Billerica, MA, USA), anti-choline acetyl transferase (ChAT) antibody (Abbiotec, San Diego, CA, USA), anti-glutamic acid decaboxylase (GAD) antibody (Enzo Life Sciences, Flamingdale, NY, USA), and anti-rhodopsin antibody (Santa Cruz, San Diego, CA, USA) were used. After incubation with primary antibody, the cells were incubated for 1 h with secondary antibody, either rhodamine-conjugated anti-mouse IgG (Sigma-Aldrich) or FITC-conjugated anti-rabbit IgG (Sigma-Aldrich). Nuclear counterstaining was done with DAPI (Molecular Probes, Eugene, OR, USA) or TO-PRO-3 (Molecular Probes), and observations were made with a fluorescence microscope system (FV300, Olympus, Tokyo, Japan). We counted the number of immuno-positive cells with a given antibody in 4 to 6 random non-overlapping visual fields (50–200 cells per field) in each experiment. At least 2 experiments were performed per condition. The degree of positivity was expressed as the rate of immuno-positive cells to the total number of nuclei stained with DAP1 or TO-PRO-3.

## YARAAARQARATLKERCLQVVRSLVK [VHL(157–171), NDD in pVHL: BC-box motif plus five amino acids, conjugated with PTD]
[1]
  NFH protein amount / band: A distinct band for NFH; also recorded: significantly greater amount of anti-NFH protein
[2]
  Voltage-gated outward K+ and inward Na+ currents: both large outward potassium currents and fast inward Na^+ currents
JAK2
  JAK2 ubiquitination: had activity as an E3 ubiquitin ligase and mediated JAK2 ubiqutination; also recorded: ubiquitination was significantly enhanced
[3]
  Rate of GAD-positive (GABAnergic neuron-like) cells: high rates of positive cells
  Rate of TH-positive (dopaminergic neuron-like) cells: high rates of positive cells
  Rate of rhodopsin-positive cells: high rates of positive cells
